Assays:
[1] = biological target: Tyk2 (Homo sapiens (Human), UniProt P29597); test: LanthaScreen JAK biochemical assay, Tyk2
Method: (§1) A panel of four LanthaScreen JAK biochemical assays (JAK1, 2, 3 and Tyk2) were carried in a common kinase reaction buffer (50 mM HEPES, pH 7.5, 0.01% Brij-35, 10 mM MgCl2, and 1 mM EGTA). Recombinant GST-tagged JAK enzymes and a GFP-tagged STAT1 peptide substrate were obtained from Life Technologies.

[2] = biological target: JAK2 (Homo sapiens (Human), UniProt O60674); test: LanthaScreen JAK biochemical assay, JAK2
Method: as §1

[3] = biological target: JAK1 (Homo sapiens (Human), UniProt P23458); test: LanthaScreen JAK biochemical assay, JAK1
Method: as §1

[4] = biological target: JAK3 (Homo sapiens (Human), UniProt P52333); test: LanthaScreen JAK biochemical assay, JAK3
Method: as §1

[5] = test system: IL-13 induced STAT6 phosphorylation in HT-29 human colorectal adenocarcinoma cells; test: Cellular JAK potency assay: inhibition of IL-13 induced STAT6 phosphorylation; assay type: cell-based; settings: IL-13 induced STAT6 phosphorylation, HT-29 cells
Method: The potency of test compounds for inhibition of the JAK-dependent cytokine interleuken-13 (IL-13) was assessed by measuring IL-13 (IL-13, R&D Systems) induced STAT6 phosphorylation in HT-29 human colorectal adenocarcinoma cells (ATCC).
The anti-STAT6 antibody (Cell Signaling Technologies) was conjugated to AlphaScreen acceptor beads (Perkin Elmer), while the anti-pSTAT6 (pTyr641) antibody (Cell Signaling Technologies) was biotinylated using EZ-Link Sulfo-NHS-Biotin (Thermo Scientific).
HT-29 cells were grown at 37° C. in a 5% CO2 humidified incubator in McCoy's 5a Modified medium (ATCC) supplemented with 10% FBS (Hyclone), 100 U/mL penicillin, 100 μg/mL streptomycin (Life Technologies), and 2 mM GlutaMAX (Life Technologies). On day 1 of the assay, cells were seeded at a 7,500 cells/well density in white poly-D-lysine-coated 384-well plates (Corning) with 25 μL medium, and were allowed to adhere overnight in the incubator. On day 2 of the assay, the medium was removed and replaced with 12 μL of assay buffer (Hank's Balanced Salt Solution/HBSS, 25 mM HEPES, and 1 mg/ml bovine serum albumin/BSA) containing dose-responses of test compounds. Compounds were serially diluted in DMSO and then diluted another 1000-fold in media to bring the final DMSO concentration to 0.1%. Cells were incubated with test compounds at 37° C. for 1 h, and followed by the addition of 12 μL of pre-warmed IL-13 (12 ng/ml in assay buffer) for stimulation. After incubating at 37° C. for 30 min, the assay buffer (containing compound and IL-13) was removed, and 10 μL of cell lysis buffer (25 mM HEPES, 0.1% SDS, 1% NP-40, 5 mM MgCl2, 1.3 mM EDTA, 1 mM EGTA, and supplement with Complete Ultra mini protease inhibitors and PhosSTOP from Roche Diagnostics). The plates were shaken at ambient temperature for 30 min before the addition of detection reagents. A mixture of biotin-anti-pSTAT6 and anti-STAT6 conjugated acceptor beads was added first and incubated at ambient temperature for 2 h, followed by the addition of streptavidin conjugated donor beads (Perkin Elmer). After a minimum of 2 h incubation, the assay plates were read on the EnVision plate reader.
Results were expressed as the negative logarithm of the IC50 value, pIC50.

JAK3, sequence (P52333 whole entry): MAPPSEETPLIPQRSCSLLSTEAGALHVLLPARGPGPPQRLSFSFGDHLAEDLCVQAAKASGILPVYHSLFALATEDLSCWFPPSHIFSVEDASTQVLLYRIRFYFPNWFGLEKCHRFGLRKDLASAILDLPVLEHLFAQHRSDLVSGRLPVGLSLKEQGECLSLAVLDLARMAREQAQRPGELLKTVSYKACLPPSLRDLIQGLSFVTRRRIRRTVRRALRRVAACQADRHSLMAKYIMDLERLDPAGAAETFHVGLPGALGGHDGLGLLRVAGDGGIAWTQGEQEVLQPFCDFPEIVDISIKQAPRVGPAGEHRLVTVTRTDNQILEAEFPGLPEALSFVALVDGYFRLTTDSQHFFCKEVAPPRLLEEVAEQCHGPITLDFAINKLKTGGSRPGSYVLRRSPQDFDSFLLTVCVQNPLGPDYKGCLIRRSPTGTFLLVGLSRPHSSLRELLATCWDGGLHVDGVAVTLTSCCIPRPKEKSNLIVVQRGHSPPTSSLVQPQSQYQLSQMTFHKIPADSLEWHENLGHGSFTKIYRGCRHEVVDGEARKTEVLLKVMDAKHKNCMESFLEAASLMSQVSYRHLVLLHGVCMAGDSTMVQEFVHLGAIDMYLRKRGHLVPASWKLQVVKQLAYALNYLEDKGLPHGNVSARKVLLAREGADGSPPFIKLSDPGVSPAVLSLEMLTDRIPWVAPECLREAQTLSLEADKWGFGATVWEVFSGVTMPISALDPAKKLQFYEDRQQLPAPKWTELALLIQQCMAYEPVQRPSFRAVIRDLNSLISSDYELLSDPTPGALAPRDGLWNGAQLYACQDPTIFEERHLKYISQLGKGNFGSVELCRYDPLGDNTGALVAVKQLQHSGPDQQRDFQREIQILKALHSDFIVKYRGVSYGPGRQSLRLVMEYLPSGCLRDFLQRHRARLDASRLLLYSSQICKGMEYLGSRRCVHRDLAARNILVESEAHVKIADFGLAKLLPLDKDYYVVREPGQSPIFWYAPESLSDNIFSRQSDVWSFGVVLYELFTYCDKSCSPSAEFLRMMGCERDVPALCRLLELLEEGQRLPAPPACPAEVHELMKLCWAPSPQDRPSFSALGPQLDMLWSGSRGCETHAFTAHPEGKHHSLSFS
JAK1, sequence (P23458 whole entry): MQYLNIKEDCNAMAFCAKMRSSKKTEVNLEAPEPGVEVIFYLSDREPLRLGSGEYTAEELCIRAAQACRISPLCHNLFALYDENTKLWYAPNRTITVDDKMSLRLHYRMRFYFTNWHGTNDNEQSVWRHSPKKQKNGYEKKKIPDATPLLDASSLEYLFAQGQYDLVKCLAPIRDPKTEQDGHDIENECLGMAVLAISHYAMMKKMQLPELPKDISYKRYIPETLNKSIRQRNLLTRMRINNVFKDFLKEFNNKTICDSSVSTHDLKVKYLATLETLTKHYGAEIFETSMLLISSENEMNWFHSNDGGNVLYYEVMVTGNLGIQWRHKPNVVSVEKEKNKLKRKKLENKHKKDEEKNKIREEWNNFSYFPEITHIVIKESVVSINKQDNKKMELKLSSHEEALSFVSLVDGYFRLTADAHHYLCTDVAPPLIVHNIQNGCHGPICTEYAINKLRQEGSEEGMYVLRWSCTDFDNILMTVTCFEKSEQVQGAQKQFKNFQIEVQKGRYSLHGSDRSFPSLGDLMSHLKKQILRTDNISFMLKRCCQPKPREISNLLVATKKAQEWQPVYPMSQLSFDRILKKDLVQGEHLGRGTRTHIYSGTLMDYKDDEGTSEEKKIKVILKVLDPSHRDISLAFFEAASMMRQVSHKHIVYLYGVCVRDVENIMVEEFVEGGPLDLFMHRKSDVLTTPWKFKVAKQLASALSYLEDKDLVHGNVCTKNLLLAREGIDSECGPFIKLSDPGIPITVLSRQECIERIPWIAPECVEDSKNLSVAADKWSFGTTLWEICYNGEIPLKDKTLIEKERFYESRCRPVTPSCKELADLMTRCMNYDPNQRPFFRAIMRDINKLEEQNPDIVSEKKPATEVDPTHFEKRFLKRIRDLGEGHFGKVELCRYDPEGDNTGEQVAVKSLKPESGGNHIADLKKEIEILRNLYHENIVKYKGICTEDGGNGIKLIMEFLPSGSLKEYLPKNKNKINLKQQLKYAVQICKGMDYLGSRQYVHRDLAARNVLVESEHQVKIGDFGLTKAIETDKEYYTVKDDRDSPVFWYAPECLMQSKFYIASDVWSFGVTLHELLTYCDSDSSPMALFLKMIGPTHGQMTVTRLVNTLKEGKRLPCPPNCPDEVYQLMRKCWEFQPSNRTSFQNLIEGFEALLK
Tyk2, sequence (P29597 whole entry): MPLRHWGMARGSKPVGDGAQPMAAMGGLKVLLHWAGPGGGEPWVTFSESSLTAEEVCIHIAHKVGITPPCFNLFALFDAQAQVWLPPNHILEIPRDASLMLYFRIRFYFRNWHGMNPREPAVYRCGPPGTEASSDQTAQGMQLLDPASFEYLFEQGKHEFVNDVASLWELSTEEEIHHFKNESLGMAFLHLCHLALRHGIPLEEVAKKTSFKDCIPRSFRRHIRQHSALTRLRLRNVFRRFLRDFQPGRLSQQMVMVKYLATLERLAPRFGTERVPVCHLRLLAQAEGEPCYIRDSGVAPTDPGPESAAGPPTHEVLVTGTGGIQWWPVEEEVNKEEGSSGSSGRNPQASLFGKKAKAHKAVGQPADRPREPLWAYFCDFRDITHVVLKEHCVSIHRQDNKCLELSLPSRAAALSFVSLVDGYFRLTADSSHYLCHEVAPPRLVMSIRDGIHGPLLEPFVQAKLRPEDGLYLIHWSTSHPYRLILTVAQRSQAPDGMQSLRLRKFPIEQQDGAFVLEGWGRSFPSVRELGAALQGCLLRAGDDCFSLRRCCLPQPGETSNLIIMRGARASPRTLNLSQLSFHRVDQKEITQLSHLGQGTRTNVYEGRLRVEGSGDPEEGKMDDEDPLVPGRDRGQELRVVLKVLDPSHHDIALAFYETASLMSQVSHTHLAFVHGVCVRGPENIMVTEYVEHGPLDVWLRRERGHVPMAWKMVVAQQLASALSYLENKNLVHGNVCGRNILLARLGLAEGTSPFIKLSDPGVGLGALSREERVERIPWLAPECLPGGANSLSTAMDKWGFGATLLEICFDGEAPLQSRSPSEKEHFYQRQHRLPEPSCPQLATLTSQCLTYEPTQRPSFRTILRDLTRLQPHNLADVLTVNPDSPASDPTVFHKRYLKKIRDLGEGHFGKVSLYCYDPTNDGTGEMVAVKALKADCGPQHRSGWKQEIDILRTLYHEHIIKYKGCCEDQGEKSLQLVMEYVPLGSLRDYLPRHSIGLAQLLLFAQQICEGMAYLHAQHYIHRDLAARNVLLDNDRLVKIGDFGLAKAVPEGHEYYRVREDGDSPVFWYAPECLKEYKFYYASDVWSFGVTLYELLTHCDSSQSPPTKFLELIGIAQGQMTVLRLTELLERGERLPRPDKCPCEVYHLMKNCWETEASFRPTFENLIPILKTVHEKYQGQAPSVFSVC
JAK2, sequence (O60674 whole entry): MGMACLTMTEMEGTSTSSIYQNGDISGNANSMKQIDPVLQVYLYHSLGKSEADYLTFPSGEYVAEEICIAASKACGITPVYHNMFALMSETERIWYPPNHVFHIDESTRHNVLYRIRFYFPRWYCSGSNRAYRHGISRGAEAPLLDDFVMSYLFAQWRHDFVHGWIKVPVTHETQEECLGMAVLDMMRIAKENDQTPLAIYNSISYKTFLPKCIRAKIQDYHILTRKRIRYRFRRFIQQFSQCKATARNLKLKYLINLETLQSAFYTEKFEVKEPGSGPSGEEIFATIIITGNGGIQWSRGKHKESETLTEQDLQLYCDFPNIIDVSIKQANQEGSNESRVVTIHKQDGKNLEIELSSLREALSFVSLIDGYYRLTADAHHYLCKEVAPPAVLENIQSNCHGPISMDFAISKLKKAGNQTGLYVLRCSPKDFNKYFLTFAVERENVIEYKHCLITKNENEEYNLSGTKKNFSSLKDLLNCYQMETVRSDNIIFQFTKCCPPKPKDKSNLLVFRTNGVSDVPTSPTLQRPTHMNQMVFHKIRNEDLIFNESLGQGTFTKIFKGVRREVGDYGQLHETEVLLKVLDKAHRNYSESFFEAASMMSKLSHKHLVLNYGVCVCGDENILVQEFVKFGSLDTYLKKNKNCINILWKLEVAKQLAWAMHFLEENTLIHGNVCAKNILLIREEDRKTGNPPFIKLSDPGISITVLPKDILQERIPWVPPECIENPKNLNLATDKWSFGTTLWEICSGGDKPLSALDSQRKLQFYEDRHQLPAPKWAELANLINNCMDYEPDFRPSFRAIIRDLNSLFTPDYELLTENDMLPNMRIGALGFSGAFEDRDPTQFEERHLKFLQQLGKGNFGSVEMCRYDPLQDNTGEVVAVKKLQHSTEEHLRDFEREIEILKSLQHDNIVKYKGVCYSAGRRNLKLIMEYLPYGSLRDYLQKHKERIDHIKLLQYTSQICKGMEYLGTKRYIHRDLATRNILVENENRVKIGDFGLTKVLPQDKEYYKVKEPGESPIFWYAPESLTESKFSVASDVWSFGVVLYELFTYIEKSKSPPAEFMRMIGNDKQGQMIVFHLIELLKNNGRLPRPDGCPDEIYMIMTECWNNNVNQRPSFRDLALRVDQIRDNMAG

| SMILES | Tyk 2 (pKi) [1] | JAK 2 (pKi) [2] | JAK 1 (pKi) [3] | JAK 3 (pKi) [4] | Ki ([1]; read-out: Tyk 2 (pKi) (converted)) | Ki ([2]; read-out: JAK 2 (pKi) (converted)) | Ki ([3]; read-out: JAK 1 (pKi) (converted)) | Ki ([4]; read-out: JAK 3 (pKi) (converted)) | HT-29 (pIC50) [5] |
| --- | --- | --- | --- | --- | --- | --- | --- | --- | --- |
| COc1cc(Nc2cc(CO)[nH]n2)nc(N(C)[C@@H]2C[C@H]3CCC[C@@H](C2)N3CCC#N)n1 [Example 2-5, 3-((1R,3s,5S)-3-((4-((5-(hydroxymethyl)-1H-pyrazol-3-yl)amino)-6-methoxypyrimidin-2-yl)(methyl)amino)-9-azabicyclo[3.3.1]nonan-9-yl)propanenitrile] | C (C represents a pKi value between 8 and 9 (Ki between 10 nM and 1 nM)) | B (B represents a pKi value between 9 and 10 (Ki between 1 nM and 0.1 nM)) | B (B represents a pKi value between 9 and 10 (Ki between 1 nM and 0.1 nM)) | D (D represents a pKi value between 7.5 and 8 (Ki between 31.6 nM and 10 nM)) |  |  |  |  |  |
| COc1cc(Nc2cc(CO)[nH]n2)nc(N(C)[C@@H]2C[C@H]3CCC[C@@H](C2)N3C(=O)C2CCCC2)n1 [Example 3-7, cyclopentyl((1R,3s,5S)-3-((4-((5-(hydroxymethyl)-1H-pyrazol-3-yl)amino)-6-methoxypyrimidin-2-yl)(methyl)amino)-9-azabicyclo[3.3.1]nonan-9-yl)methanone] | B (B represents a pKi value between 9 and 10 (Ki between 1 nM and 0.1 nM)) | B (B represents a pKi value between 9 and 10 (Ki between 1 nM and 0.1 nM)) | B (B represents a pKi value between 9 and 10 (Ki between 1 nM and 0.1 nM)) |  |  |  |  |  |  |
| COc1cc(Nc2cc(CO)[nH]n2)nc(N(C)[C@@H]2C[C@H]3CCC[C@@H](C2)N3C(=O)CC2CC2)n1 [Example 3-5, 2-cyclopropyl-1-((1R,3s,5S)-3-((4-((5-(hydroxymethyl)-1H-pyrazol-3-yl)amino)-6-methoxypyrimidin-2-yl)(methyl)amino)-9-azabicyclo[3.3.1]nonan-9-yl)ethan-1-one] | B (B represents a pKi value between 9 and 10 (Ki between 1 nM and 0.1 nM)) | B (B represents a pKi value between 9 and 10 (Ki between 1 nM and 0.1 nM)) | B (B represents a pKi value between 9 and 10 (Ki between 1 nM and 0.1 nM)) |  |  |  |  |  |  |
| COc1cc(Nc2cc(CO)[nH]n2)nc(N(C)[C@@H]2C[C@H]3CCC[C@@H](C2)N3C(=O)C2CCC2)n1 [Example 3-8, cyclobutyl((1R,3s,5S)-3-((4-((5-(hydroxymethyl)-1H-pyrazol-3-yl)amino)-6-methoxypyrimidin-2-yl)(methyl)amino)-9-azabicyclo[3.3.1]nonan-9-yl)methanone] | B (B represents a pKi value between 9 and 10 (Ki between 1 nM and 0.1 nM)) | B (B represents a pKi value between 9 and 10 (Ki between 1 nM and 0.1 nM)) | B (B represents a pKi value between 9 and 10 (Ki between 1 nM and 0.1 nM)) |  |  |  |  |  |  |
| COc1cc(Nc2cc(CO)[nH]n2)nc(N(C)[C@@H]2C[C@H]3CCC[C@@H](C2)N3C(C)=O)n1 [Example 3-6] | C (C represents a pKi value between 8 and 9 (Ki between 10 nM and 1 nM)) | B (B represents a pKi value between 9 and 10 (Ki between 1 nM and 0.1 nM)) | B (B represents a pKi value between 9 and 10 (Ki between 1 nM and 0.1 nM)) |  |  |  |  |  |  |
| COc1cc(Nc2cc(CO)[nH]n2)nc(N(C)[C@@H]2C[C@H]3CCC[C@@H](C2)N3C(=O)C(F)F)n1 [Example 9, 2,2-difluoro-1-((1R,3s,5S)-3-((4-((5-(hydroxymethyl)-1H-pyrazol-3-yl)amino)-6-methoxypyrimidin-2-yl)(methyl)amino)-9-azabicyclo[3.3.1]nonan-9-yl)ethan-1-one] |  |  |  |  | 0.1 to 1 nM | 0.1 to 1 nM | 0.1 to 1 nM | 10 to 31.6 nM |  |
| COc1cc(Nc2cc(CO)[nH]n2)nc(N(C)[C@@H]2C[C@H]3CCC[C@@H](C2)N3S(=O)(=O)CCC#N)n1 [Example 1-12, 3-(((1R,3s,5S)-3-((4-((5-(hydroxymethyl)-1H-pyrazol-3-yl)amino)-6-methoxypyrimidin-2-yl)(methyl)amino)-9-azabicyclo[3.3.1]nonan-9-yl)-sulfonyl)propanenitrile] | B (B represents a pKi value between 9 and 10 (Ki between 1 nM and 0.1 nM)) | B (B represents a pKi value between 9 and 10 (Ki between 1 nM and 0.1 nM)) | B (B represents a pKi value between 9 and 10 (Ki between 1 nM and 0.1 nM)) | C (C represents a pKi value between 8 and 9 (Ki between 10 nM and 1 nM)) |  |  |  |  |  |
| COc1cc(Nc2cc(CO)[nH]n2)nc(N(C)[C@@H]2C[C@H]3CCC[C@@H](C2)N3C(=O)OCC(C)C)n1 [Example 3-2, isobutyl (1R,3s,5S)-3-((4-((5-(hydroxymethyl)-1H-pyrazol-3-yl)amino)-6-methoxypyrimidin-2-yl)(methyl)amino)-9-azabicyclo[3.3.1]nonane-9-carboxylate] | B (B represents a pKi value between 9 and 10 (Ki between 1 nM and 0.1 nM)) | B (B represents a pKi value between 9 and 10 (Ki between 1 nM and 0.1 nM)) | B (B represents a pKi value between 9 and 10 (Ki between 1 nM and 0.1 nM)) |  |  |  |  |  |  |
| COC(=O)N1[C@@H]2CCC[C@H]1C[C@H](N(C)c1nc(Nc3cc(CO)[nH]n3)cc(OC)n1)C2 [Example 3-3, methyl (1R,3s,5S)-3-((4-((5-(hydroxymethyl)-1H-pyrazol-3-yl)amino)-6-methoxypyrimidin-2-yl)(methyl)amino)-9-azabicyclo[3.3.1]nonane-9-carboxylate] | C (C represents a pKi value between 8 and 9 (Ki between 10 nM and 1 nM)) | B (B represents a pKi value between 9 and 10 (Ki between 1 nM and 0.1 nM)) | B (B represents a pKi value between 9 and 10 (Ki between 1 nM and 0.1 nM)) |  |  |  |  |  |  |
| COc1cc(Nc2cc(CO)[nH]n2)nc(N(C)[C@@H]2C[C@H]3CCC[C@@H](C2)N3CC2(C#N)CC2)n1 [Example 2-6, 1-(((1R,3s,5S)-3-((4-((5-(hydroxymethyl)-1H-pyrazol-3-yl)amino)-6-methoxypyrimidin-2-yl)(methyl)amino)-9-azabicyclo[3.3.1]nonan-9-yl)methyl)cyclopropane-1-carbonitrile] | B (B represents a pKi value between 9 and 10 (Ki between 1 nM and 0.1 nM)) | B (B represents a pKi value between 9 and 10 (Ki between 1 nM and 0.1 nM)) | B (B represents a pKi value between 9 and 10 (Ki between 1 nM and 0.1 nM)) | C (C represents a pKi value between 8 and 9 (Ki between 10 nM and 1 nM)) |  |  |  |  |  |
| COc1cc(Nc2cc(CO)[nH]n2)nc(N(C)[C@@H]2C[C@H]3CCC[C@@H](C2)N3Cc2ccnc(C#N)c2)n1 [Example 2-8, 4-(((1R,3s,5S)-3-((4-((5-(hydroxymethyl)-1H-pyrazol-3-yl)amino)-6-methoxypyrimidin-2-yl)(methyl)amino)-9-azabicyclo[3.3.1]nonan-9-yl)methyl)picolinonitrile] |  |  | B (B represents a pKi value between 9 and 10 (Ki between 1 nM and 0.1 nM)) |  |  |  |  |  | B (B represents a pIC50 value between 6.7 and 7.5 (IC50 between 200 nM and 32 nM)) |
| CCS(=O)(=O)N1[C@@H]2CCC[C@H]1C[C@H](Nc1nc(Nc3cc(CO)[nH]n3)cc(OC)n1)C2 [Example 1-9, (3-((2-(((1R,3s,5S)-9-(ethylsulfonyl)-9-azabicyclo[3.3.1]nonan-3-yl)amino)-6-methoxypyrimidin-4-yl)amino)-1H-pyrazol-5-yl)methanol] |  |  | B (B represents a pKi value between 9 and 10 (Ki between 1 nM and 0.1 nM)) |  |  |  |  |  | B (B represents a pIC50 value between 6.7 and 7.5 (IC50 between 200 nM and 32 nM)) |
| COc1cc(Nc2cc(CO)[nH]n2)nc(N(C)[C@@H]2C[C@H]3CCC[C@@H](C2)N3C(=O)N2CCOCC2)n1 [Example 3-4, ((1R,3s,5S)-3-((4-((5-(hydroxymethyl)-1H-pyrazol-3-yl)amino)-6-methoxy-pyrimidin-2-yl)(methyl)amino)-9-azabicyclo[3.3.1]nonan-9-yl)(morpholino)methanone] | B (B represents a pKi value between 9 and 10 (Ki between 1 nM and 0.1 nM)) | B (B represents a pKi value between 9 and 10 (Ki between 1 nM and 0.1 nM)) | B (B represents a pKi value between 9 and 10 (Ki between 1 nM and 0.1 nM)) |  |  |  |  |  |  |
